The values that follow come from patent US10457654B2 (GENENTECH, INC., priority 2017, dated 2019).

Where a name gives a salt, the structure may show the parent alone.

In assay [1] the target is T1, hNav1.7 (Homo sapiens (Human), UniProt Q15858). Nature of the assay: Tritiated compound binding to membranes from cells expressing hNav1.7 and the β1 subunit, modified protocol (LBA, Ex. 243B). The following applies: 300 pM [3H]compound, room temperature, read-out: Nav1.7 LBA (Ex. 243B) IC50.
Target sequence in this assay (Q15858 whole entry, looked up): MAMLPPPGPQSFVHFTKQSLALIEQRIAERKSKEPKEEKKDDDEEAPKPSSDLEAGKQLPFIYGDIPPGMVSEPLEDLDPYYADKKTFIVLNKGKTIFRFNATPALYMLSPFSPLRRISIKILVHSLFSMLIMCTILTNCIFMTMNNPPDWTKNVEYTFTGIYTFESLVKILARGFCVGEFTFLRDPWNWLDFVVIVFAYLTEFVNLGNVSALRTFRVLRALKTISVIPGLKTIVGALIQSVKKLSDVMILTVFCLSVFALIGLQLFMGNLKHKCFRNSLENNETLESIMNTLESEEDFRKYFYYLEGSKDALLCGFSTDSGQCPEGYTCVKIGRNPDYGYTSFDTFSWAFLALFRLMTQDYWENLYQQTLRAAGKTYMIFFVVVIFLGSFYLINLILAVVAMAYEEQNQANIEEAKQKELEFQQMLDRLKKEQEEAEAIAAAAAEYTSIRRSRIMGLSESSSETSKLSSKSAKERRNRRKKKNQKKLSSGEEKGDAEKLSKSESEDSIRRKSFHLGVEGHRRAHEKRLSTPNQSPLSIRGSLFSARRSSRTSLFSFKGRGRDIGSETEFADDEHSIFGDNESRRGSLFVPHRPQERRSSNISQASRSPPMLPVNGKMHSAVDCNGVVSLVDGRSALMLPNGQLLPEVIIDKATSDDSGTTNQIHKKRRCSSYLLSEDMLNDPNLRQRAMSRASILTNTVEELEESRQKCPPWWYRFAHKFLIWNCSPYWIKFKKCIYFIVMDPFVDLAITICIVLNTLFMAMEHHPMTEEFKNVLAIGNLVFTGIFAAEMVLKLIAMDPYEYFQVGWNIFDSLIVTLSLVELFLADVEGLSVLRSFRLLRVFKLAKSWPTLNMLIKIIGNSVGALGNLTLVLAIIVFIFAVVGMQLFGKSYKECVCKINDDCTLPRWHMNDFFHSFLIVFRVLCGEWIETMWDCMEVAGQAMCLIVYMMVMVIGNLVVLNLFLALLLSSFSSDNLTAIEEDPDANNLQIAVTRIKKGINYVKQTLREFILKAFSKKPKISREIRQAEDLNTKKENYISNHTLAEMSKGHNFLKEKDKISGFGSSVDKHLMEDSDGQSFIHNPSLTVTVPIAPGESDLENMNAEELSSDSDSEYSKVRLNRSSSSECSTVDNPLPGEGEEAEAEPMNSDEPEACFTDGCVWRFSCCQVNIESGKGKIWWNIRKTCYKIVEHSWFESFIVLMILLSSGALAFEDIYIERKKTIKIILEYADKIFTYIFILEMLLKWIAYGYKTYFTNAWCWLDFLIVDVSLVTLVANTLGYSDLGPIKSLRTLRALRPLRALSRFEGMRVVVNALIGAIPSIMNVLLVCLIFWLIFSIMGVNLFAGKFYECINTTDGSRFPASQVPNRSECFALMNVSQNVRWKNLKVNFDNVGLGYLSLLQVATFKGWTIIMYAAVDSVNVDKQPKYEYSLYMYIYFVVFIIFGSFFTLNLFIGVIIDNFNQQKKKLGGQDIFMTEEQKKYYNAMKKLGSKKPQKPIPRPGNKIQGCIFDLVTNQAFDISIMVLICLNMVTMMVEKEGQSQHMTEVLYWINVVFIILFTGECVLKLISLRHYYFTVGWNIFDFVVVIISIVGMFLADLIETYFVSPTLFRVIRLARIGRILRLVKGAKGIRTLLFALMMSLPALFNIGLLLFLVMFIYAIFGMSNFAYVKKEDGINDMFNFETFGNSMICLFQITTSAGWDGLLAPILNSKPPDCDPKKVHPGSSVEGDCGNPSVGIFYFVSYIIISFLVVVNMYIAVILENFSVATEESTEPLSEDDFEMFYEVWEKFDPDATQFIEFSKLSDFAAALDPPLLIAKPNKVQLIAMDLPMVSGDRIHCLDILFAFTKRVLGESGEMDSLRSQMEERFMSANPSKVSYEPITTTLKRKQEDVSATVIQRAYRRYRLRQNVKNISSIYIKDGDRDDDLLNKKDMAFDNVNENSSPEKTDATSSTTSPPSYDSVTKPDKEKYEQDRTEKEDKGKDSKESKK
Target sequence in this assay (Q07699 whole entry partner, looked up): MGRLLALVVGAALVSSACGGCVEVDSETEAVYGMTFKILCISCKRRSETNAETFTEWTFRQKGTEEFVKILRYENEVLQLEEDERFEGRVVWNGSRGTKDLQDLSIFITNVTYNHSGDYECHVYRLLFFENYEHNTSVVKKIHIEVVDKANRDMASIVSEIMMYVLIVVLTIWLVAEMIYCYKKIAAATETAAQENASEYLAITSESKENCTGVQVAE
Assay [2] has as its target T1, hNav1.7. The experiment in a line: Patch voltage clamp electrophysiology assay (EP), Syncropatch 384PE, CHO cells expressing Nav1.7. The following applies: read-out: EP_SP hNav1.7 (Ex. 243B) IC50. It is filed as cell-based. As to the method:
Electrophysiological Assay (EP) (In Vitro Assay)
The following voltage clamp electrophysiology studies were performed on representative compounds using cells heterologously expressing Nav1.7 or Nav1.5 channels. cDNAs for Nav1.7 (NM_002977) and Nav1.5 (AC137587) were stably expressed in Chinese Hamstr Ovary (CHO) cells and CHL (Chinese Hamster Lung) cells respectively. […] Internal solution consists of (in mM): 110 […], 10 […], 20 EGTA, and 10 Hepes (pH adjusted to 7.2); and external solution contains (in mM): 60 NMDG, 80 NaCl, 4 KCl, 1 MgCl2, 2 CaCl2, 2 D-Glucose monohydrate, 10 Hepes (pH adjusted to 7.4 with NaOH).
The chip is moved into the measuring head and the instrument primes the chip with external and internal solutions. […] cells are added to the chip from a cell hotel, and a negative pressure of −50 mBar is applied to form a seal. Following treatment with seal enhancer solution and wash-off with external solution, negative pressure of −250 mbar is applied for 1 second to achieve the whole-cell configuration, followed by three washing steps in external solution. 20 μl of compounds is added to 40 μl in each well (1:3 dilution of compounds), and after mixing, 20 μl is removed so the volume is retained at 40 μl.
For voltage protocol, an holding potential of −50 mV is applied during the whole experiment. A depolarizing step is applied to −10 mV for 10 ms, followed by a hyperpolarization step to −150 mV for 20 ms to allow channel recovery from inactivation. A second depolarizing step is applied from −150 mV to −10 mV for 10 ms, where currents were measured to derive blocking effects of compounds. Inhibition is determined based on 7.5 min of compound incubation.
Target sequence in this assay (Q15858 other isoform, or with tags, fused parts or gaps): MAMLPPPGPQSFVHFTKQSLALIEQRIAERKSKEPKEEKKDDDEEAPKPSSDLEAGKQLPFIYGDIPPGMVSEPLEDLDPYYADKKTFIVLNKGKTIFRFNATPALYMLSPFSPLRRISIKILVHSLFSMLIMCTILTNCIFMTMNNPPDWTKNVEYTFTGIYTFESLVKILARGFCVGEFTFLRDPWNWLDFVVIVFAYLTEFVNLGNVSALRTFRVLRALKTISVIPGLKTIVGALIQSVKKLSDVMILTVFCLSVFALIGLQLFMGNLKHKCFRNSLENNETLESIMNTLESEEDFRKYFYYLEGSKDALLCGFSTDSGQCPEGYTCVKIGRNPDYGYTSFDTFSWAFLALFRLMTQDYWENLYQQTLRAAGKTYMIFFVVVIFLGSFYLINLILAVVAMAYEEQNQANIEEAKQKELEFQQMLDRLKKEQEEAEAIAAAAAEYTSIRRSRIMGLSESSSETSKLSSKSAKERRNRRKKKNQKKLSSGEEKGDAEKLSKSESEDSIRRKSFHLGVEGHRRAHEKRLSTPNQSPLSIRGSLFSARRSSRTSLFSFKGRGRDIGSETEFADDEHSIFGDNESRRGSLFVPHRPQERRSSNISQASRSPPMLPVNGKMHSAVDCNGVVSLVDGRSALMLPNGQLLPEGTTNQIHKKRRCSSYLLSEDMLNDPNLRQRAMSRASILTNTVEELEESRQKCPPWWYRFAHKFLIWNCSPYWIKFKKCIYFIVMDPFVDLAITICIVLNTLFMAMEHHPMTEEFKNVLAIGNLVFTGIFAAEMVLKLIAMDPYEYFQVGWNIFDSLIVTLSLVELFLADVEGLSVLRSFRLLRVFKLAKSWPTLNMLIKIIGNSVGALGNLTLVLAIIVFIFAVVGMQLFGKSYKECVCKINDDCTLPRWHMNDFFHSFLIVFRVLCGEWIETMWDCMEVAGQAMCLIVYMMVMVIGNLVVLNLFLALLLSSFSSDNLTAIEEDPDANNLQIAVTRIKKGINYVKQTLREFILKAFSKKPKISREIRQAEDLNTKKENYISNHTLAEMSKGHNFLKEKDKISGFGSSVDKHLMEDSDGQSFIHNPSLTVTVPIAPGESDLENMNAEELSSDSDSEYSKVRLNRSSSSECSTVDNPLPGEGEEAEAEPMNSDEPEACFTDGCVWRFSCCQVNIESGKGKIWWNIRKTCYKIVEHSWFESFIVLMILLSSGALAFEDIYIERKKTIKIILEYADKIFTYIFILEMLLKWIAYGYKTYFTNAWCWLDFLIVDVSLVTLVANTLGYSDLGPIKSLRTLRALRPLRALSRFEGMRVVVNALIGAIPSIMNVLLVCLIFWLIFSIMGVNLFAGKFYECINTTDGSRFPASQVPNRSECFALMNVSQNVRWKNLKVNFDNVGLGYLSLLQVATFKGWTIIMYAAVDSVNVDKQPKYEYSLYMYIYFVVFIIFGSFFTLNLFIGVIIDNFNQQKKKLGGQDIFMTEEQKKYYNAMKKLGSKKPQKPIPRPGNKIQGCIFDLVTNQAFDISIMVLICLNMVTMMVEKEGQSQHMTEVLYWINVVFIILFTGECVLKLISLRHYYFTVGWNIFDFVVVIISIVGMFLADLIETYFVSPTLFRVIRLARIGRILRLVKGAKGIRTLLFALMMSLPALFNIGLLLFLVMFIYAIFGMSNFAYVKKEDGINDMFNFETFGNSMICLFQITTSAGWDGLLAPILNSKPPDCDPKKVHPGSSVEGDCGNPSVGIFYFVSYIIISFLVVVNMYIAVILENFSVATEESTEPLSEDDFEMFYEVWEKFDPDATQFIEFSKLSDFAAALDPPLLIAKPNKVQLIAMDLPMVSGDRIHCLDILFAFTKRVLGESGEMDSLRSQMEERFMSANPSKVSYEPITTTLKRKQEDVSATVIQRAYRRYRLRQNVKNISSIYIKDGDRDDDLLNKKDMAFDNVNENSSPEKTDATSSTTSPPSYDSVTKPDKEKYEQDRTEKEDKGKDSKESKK
(Patch clamp records ionic current or voltage across a cell membrane.)

Where [3] appears, read: holding potential -50 mV, […] compound incubation.

A word on the IC50: it is the point on the concentration scale where inhibition reaches its midpoint.

As for `CN(C)[C@H]1C[C@@H](c2ccccc2)CC[C@@H]1Nc1cc(F)c(S(=O)(=O)Nc2ccncn2)cc1Cl` [Example 232, 5-chloro-4-(((1S,2S,4S)-2-(dimethyamino)-4-phenylcyclohexyl)amino)-2-fluoro-N-(pyrimidin-4-yl)benzenesulfonamide formate], the IC50 worked out at 47.8 nM on hNav1.7 [1] and 10.5 nM on hNav1.7 [2] (setting [3]).

With `CN(C)[C@@H]1CCCCC[C@H]1Nc1cc(F)c(S(=O)(=O)Nc2nccs2)cc1Cl` [Example 145, 5-chloro-4-(((1R,2R)-2-(dimethylamino)cycloheptyl)amino)-2-fluoro-N-(thiazol-2-yl)benzenesulfonamide formate], the IC50 at hNav1.7 [1] came out at 2000 nM; at hNav1.7 [2] (setting [3]), 395 nM.

`O=S(=O)(Nc1nccs1)c1cc(Cl)c(N[C@@H]2CCCC[C@H]2N2CC3CC3C2)cc1F` (stereo partly drawn) [Example 159, 4-(((1R,2R)-2-(3-azabicyclo[3.1.0]hexan-3-yl)cyclohexyl)amino)-5-chloro-2-fluoro-N-(thiazol-2-yl)benzenesulfonamide]: the IC50 at hNav1.7 [1] amounted to 1790 nM; on hNav1.7 [2], 202 nM.

As for `CN[C@H]1C[C@@H](c2cccc(C(F)(F)F)c2)CC[C@@H]1Nc1cc(F)c(S(=O)(=O)Nc2ccncn2)cc1Cl` [Example 226, 5-Chloro-2-fluoro-4-(((1S,2S,4S)-2-(methylamino)-4-(3-(trifluoromethyl)phenyl)cyclohexyl)amino)-N-(pyrimidin-4-yl)benzenesulfonamide], the IC50 at hNav1.7 [1] is 1.45 nM; on hNav1.7 [2] (setting [3]) it was 1.04 nM.

In the case of `CN1CC[C@@H](C(=O)N(C)[C@H]2CCCC[C@@H]2Nc2cc(F)c(S(=O)(=O)Nc3nccs3)cc2Cl)C1` [Example 200, (R)—N-((1S,2S)-2-((2-chloro-5-fluoro-4-(N-(thiazol-2-yl)sulfamoyl)phenyl)amino)cyclohexyl)-N,1-dimethylpyrrolidine-3-carboxamide], the IC50 on hNav1.7 [1] was 150 nM; at hNav1.7 [2] (setting [3]), 16.7 nM.

Consider `O=S(=O)(Nc1nccs1)c1cc(Cl)c(N[C@H]2CCCC[C@@H]2N2CCC(O)CC2)cc1F` [Example 131, 5-chloro-2-fluoro-4-(((1 S,2S)-2-(4-hydroxypiperidin-1-yl)cyclohexyl)amino)-N-(thiazol-2-yl)benzenesulfonamide], for which the IC50 on hNav1.7 [1] was determined as 201 nM; on hNav1.7 [2] (setting [3]), 5.95 nM.

For the compound `CN(C)[C@H]1C[C@@H](c2cccc(C(F)(F)F)c2)CC[C@@H]1Oc1cc(F)c(S(=O)(=O)Nc2ccncn2)cc1Cl` [Example 238, 5-chloro-4-(((1S,2S,4S)-2-(dimethylamino)-4-(3-(trifluoromethyl)phenyl)cyclohexyl)oxy)-2-fluoro-N-(pyrimidin-4-yl)benzenesulfonamide], the IC50 stood at 5.54 nM on hNav1.7 [1] and 1.17 nM at hNav1.7 [2] (setting [3]).

Take `O=S(=O)(Nc1ccncn1)c1cc(Cl)c(N[C@H]2CCCC[C@@H]2N2CCC[C@@](F)(CO)C2)cc1F` [Example 222, 5-Chloro-2-fluoro-4-(((1S,2S)-2-((S)-3-fluoro-3-(hydroxymethyl)piperidin-1-yl)cyclohexyl)amino)-N-(pyrimidin-4-yl)benzenesulfonamide]: the values for the IC50 at hNav1.7 [1] and on hNav1.7 [2] (setting [3]) were 464 nM and 124 nM, respectively.

As to `CN(C)[C@@H]1C[C@H]2C[C@H]2C[C@H]1Nc1cc(F)c(S(=O)(=O)Nc2nccs2)cc1Cl` [Example 217, 5-Chloro-4-(((1S,3R,4R,6R)-4-(dimethylamino)bicyclo[4.1.0]heptan-3-yl)amino)-2-fluoro-N-(thiazol-2-yl)benzenesulfonamide], the IC50 amounted to 1190 nM on hNav1.7 [1] and 112 nM at hNav1.7 [2] (setting [3]).

For the compound `CN(C)[C@H]1CCCCC[C@@H]1Nc1cc(F)c(S(=O)(=O)Nc2nccs2)cc1Cl` [Example 144, 5-chloro-4-(((1S,2S)-2-(dimethylamino)cycloheptyl)amino)-2-fluoro-N-(thiazol-2-yl)benzenesulfonamide formate], the IC50 at hNav1.7 [1] stood at 374 nM; on hNav1.7 [2] (setting [3]), 25.8 nM.

On to `CN(C)[C@H]1CN(c2cccc(C(F)(F)F)c2)CC[C@@H]1Nc1cc(F)c(S(=O)(=O)Nc2ccncn2)cc1Cl` [Example 233, 5-Chloro-4-(((3S,4S)-3-(dimethylamino)-1-(3-(trifluoromethyl)phenyl)piperidin-4-yl)amino)-2-fluoro-N-(pyrimidin-4-yl)benzenesulfonamide], for which the IC50 on hNav1.7 [1] was determined as 9.82 nM; on hNav1.7 [2] (setting [3]), 1.71 nM.

Regarding `CN(C)[C@H]1C[C@@H](c2cccc(C(F)(F)F)c2)CC[C@@H]1Nc1ccc(S(=O)(=O)Nc2ccncn2)c(F)c1` [Example 237, 4-(((1S,2S,4S)-2-(Dimethylamino)-4-(3-(trifluoromethyl)phenyl)cyclohexyl)amino)-2-fluoro-N-(pyrimidin-4-yl)benzenesulfonamide formate], the IC50 came to 2.43 nM on hNav1.7 [1] and 1.07 nM at hNav1.7 [2] (setting [3]).

Turning to `O=S(=O)(Nc1nccs1)c1cc(Cl)c(N[C@H]2CCCC[C@@H]2N2CCC3(CC2)CC3)cc1F` [Example 154, 4-(((1S,2S)-2-(6-Azaspiro[2.5]octan-6-yl)cyclohexyl)amino)-5-chloro-2-fluoro-N-(thiazol-2-yl)benzenesulfonamide formate], the IC50 on hNav1.7 [1] came out at 1200 nM; on hNav1.7 [2] (setting [3]), 101 nM.

With `CN(C)[C@@H]1CC(F)(F)CC[C@H]1Nc1cc(F)c(S(=O)(=O)Nc2nccs2)cc1Cl` [Example 188, 5-chloro-4-(((1R,2R)-2-(dimethylamino)-4,4-difluorocyclohexyl)amino)-2-fluoro-N-(thiazol-2-yl)benzenesulfonamide formate], the IC50 on hNav1.7 [1] was found to be 2000 nM; on hNav1.7 [2] (setting [3]), 684 nM.

On to `CN(C)[C@H]1CC=CC[C@@H]1Nc1cc(F)c(S(=O)(=O)Nc2nccs2)cc1Cl` [Example 141, 5-Chloro-4-(((1S,6S)-6-(dimethylamino)cyclohex-3-en-1-yl)amino)-2-fluoro-N-(thiazol-2-yl)benzenesulfonamide formate], for which the IC50 at hNav1.7 [1] worked out at 275 nM; at hNav1.7 [2] (setting [3]), 12.7 nM.

`O=S(=O)(Nc1nccs1)c1cc(Cl)c(N[C@H]2CCCC[C@@H]2N2CCC[C@@H](CO)C2)cc1F` [Example 169, 5-chloro-2-fluoro-4-(((1S,2S)-2-((R)-3-(hydroxymethyl)piperidin-1-yl)cyclohexyl)amino)-N-(thiazol-2-yl)benzenesulfonamide formate]: the IC50 on hNav1.7 [1] was found to be 7.56 nM; at hNav1.7 [2] (setting [3]) it was 3.34 nM.

`CN(CC(C)(C)O)[C@H]1CCCC[C@@H]1Nc1cc(F)c(S(=O)(=O)Nc2nccs2)cc1Cl` [Example 116, 5-Chloro-2-fluoro-4-(((1S,2S)-2-((2-hydroxy-2-methylpropyl)(methyl)amino)cyclohexyl)amino)-N-(thiazol-2-yl)benzenesulfonamide formate]: the IC50 came out at 307 nM at hNav1.7 [1] and 18.2 nM on hNav1.7 [2] (setting [3]).

As for `CN(C)[C@H]1CCC(c2cccc(C(F)(F)F)c2)C[C@@H]1Nc1cc(F)c(S(=O)(=O)Nc2ccncn2)cc1Cl` (stereo in doubt) [Example 121, 5-chloro-4-(((1S,2S,5S)-2-(dimethylamino)-5-(3-(trifluoromethyl)phenyl)cyclohexyl)amino)-2-fluoro-N-(pyrimidin-4-yl)benzenesulfonamide], the IC50 came out at 1170 nM on hNav1.7 [1] and 121 nM on hNav1.7 [2] (setting [3]).

Turning to `CN(C)[C@H]1C[C@@H](c2ccc(C(F)(F)F)cc2)CC[C@@H]1Nc1cc(F)c(S(=O)(=O)Nc2ccncn2)cc1Cl` [Example 224, 5-Chloro-4-(((1S,2S,4S)-2-(dimethylamino)-4-(4-(trifluoromethyl)phenyl)cyclohexyl)amino)-2-fluoro-N-(pyrimidin-4-yl)benzenesulfonamide], the IC50 is 8.33 nM at hNav1.7 [1] and 2.36 nM at hNav1.7 [2] (setting [3]).

In the case of `Cc1nc(NS(=O)(=O)c2cc(Cl)c(N[C@H]3CCCC[C@@H]3N(C)C)cc2F)sc1F` [Example 211, 5-Chloro-4-(((1S,2S)-2-(dimethylamino)cyclohexyl)amino)-2-fluoro-N-(5-fluoro-4-methylthiazol-2-yl)benzenesulfonamide formate], the IC50 at hNav1.7 [1] stood at 1430 nM; at hNav1.7 [2] (setting [3]), 120 nM.

For the compound “5-Chloro-4-(((1S,2S)-2-(cyclobutyl(methyl)amino)cyclohexyl)amino)-2-fluoro-N-(thiazol-2-yl)benzenesulfonamide formate [Example 115]”, the 50% inhibitory concentration (IC50) at hNav1.7 [1] stood at 18 nM; at hNav1.7 [2] (setting [3]), 3.29 nM.

With `CN(C)[C@H]1C[C@@H](c2cccc(C(F)(F)F)c2)CC[C@@H]1Nc1cc(F)c(S(=O)(=O)Nc2ccncn2)cc1F` [Example 220, 4-(((1S,2S,4S)-2-(Dimethylamino)-4-(3-(trifluoromethyl)phenyl)cyclohexyl)amino)-2,5-difluoro-N-(pyrimidin-4-yl)benzenesulfonamide], the IC50 at hNav1.7 [2] (setting [3]) was 0.418 nM.
